Measurements published in patent US12486489B2, “Culture medium for testing drug resistance of H.pylori as well as preparation method and use thereof” (priority 2022, dated 2025).
Like-named read-outs stand apart in the source and are kept apart here.

Legend:
[1] = tested on: clinical H. pylori strain; assay: MIC of clinical H. pylori strains by micro dilution method; assay type: cell-based; conditions: Helicobacter pylori, 72 h, approximately 1.0×10^6 CFU/mL per well, 72 hours, read-out: MIC
Method: The characteristic culture media (A, B, C, D, E) are cultivated at a constant temperature of 37° C. for 36 hours in a three gas incubator. The characteristic culture media are removed and placed in a natural environment for 30 minutes to observe whether there are discolorations at the point of the culture medium where the specimen is dropped in. […] Another 100 μL of the specimen is taken and coated on Columbia solid culture medium and cultivated in a three gas incubator at a constant temperature of 37° C. for 3 days to 5 days. The number of colonies on the plate is counted to determine the initial inoculation amount. The micro dilution method is adopted to test the MIC of clinical specimen H. pylori, the test is meaningful only when there is no bacterial growth in the negative control well without bacteria and there is bacterial growth in the positive well with bacteria but without antibiotics.
H. pylori single colony grown on Colombian culture medium is taken (which is confirmed as H. pylori by urease, oxidase, catalase, and PCR testing of CagA gene, as illustrated in FIG. 13) and the bacteria are increased. During the preparation of MIC plates and bacterial solution, H. pylori with logarithmic growth phase is taken to prepare a bacterial suspension by using BHI. The concentration OD600 is adjusted to 0.3 (1×10^8 CFU/mL, diluted 10 times, 10 μL is taken and added to wells 1-8 (with a bacterial solution concentration of approximately 1.0×10^6 CFU/mL per well, cultivated for 72 hours to determine the results.

H. pylori [2] = assay: Verification of resistance breakpoint: growth of laboratory strains on Columbia solid culture medium with added antibiotics, 72 hours; assay type: cell-based, Helicobacter pylori
Method: The plates are cooled and inverted for approximately 10 mL/piece, marked properly for the subsequent use.
(2) Preparation of bacterial solution: H. pylori grown in logarithmic phase on a solid plate is taken to prepare a bacterial suspension by using BHI. The concentration OD600 is adjusted to 0.3 (1×10^8 CFU/mL), diluted 10 times for the subsequent use.
(3) Inoculation of bacterial solution: 10 μL of bacterial solution is taken and added to Columbia culture medium and the results are determined after cultivating for 72 hours.
(4) Result determination: the minimum drug concentration for no growth of bacteria on the plate is the minimum inhibitory concentration of the bacteria against the drug.

H. pylori [3] = assay: MIC of laboratory H. pylori strains by micro dilution method; assay type: cell-based; conditions: Helicobacter pylori
Method: (3) Preparation of bacterial solution: H. pylori grown in logarithmic phase on a solid plate is taken, BHI culture medium is used to prepare a bacterial suspension. The concentration of the bacterial solution is adjusted to 1×10^8 CFU/mL (OD600 is 0.3), diluted 10 times, 100 times, and 1000 times to implement a final concentration of […], for the subsequent use.
(4) Inoculation of bacterial solution: 10 μL of the above bacterial solution for the subsequent use is taken and added to wells the 1-10-th and the 12-th well (bacterial working concentration is 1×10^6 CFU/mL), the 11-th well serves as a non-bacterial control and only sterile water is added. The wells are cultivated for 72 hours to determine the results.

C[C@H]1COc2c(N3CCN(C)CC3)c(F)cc3c(=O)c(C(=O)O)cn1c23 [Levofloxacin, levofloxacin]
32 µg/mL: MIC (H. pylori [3]; read-out: minimum inhibitory concentration (MIC), strain 290, bacterial count 10^6 CFU/mL (first line of the strain)) | MIC (H. pylori [3]; read-out: minimum inhibitory concentration (MIC), strain 290, bacterial count 10^6 CFU/mL (second line of the strain))
2 µg/mL: MIC (H. pylori [3]; read-out: minimum inhibitory concentration (MIC), strain 159, bacterial count 10^6 CFU/mL (first line of the strain)) | MIC (H. pylori [3]; read-out: minimum inhibitory concentration (MIC), strain 161, bacterial count 10^6 CFU/mL (first line of the strain)) | MIC (H. pylori [3]; read-out: minimum inhibitory concentration (MIC), strain 161, bacterial count 10^6 CFU/mL (second line of the strain)) | MIC (H. pylori [3]; read-out: minimum inhibitory concentration (MIC), strain 162, bacterial count 10^4 CFU/mL) | MIC (H. pylori [3]; read-out: minimum inhibitory concentration (MIC), strain 163, bacterial count 10^4 CFU/mL) | MIC (H. pylori [3]; read-out: minimum inhibitory concentration (MIC), strain 287, bacterial count 10^6 CFU/mL (second line of the strain)) | MIC (H. pylori [3]; read-out: minimum inhibitory concentration (MIC), strain 289, bacterial count 10^4 CFU/mL)
8 µg/mL: MIC (H. pylori [3]; read-out: minimum inhibitory concentration (MIC), strain 162, bacterial count 10^6 CFU/mL (first line of the strain)) | MIC (H. pylori [3]; read-out: minimum inhibitory concentration (MIC), strain 289, bacterial count 10^6 CFU/mL (first line of the strain))
16 µg/mL: MIC ([1]; clinical strain FY-31) | MIC (H. pylori [3]; read-out: minimum inhibitory concentration (MIC), strain 163, bacterial count 10^6 CFU/mL (first line of the strain)) | MIC (H. pylori [3]; read-out: minimum inhibitory concentration (MIC), strain 290, bacterial count 10^4 CFU/mL)
4 µg/mL: MIC (H. pylori [3]; read-out: minimum inhibitory concentration (MIC), strain 162, bacterial count 10^6 CFU/mL (second line of the strain)) | MIC (H. pylori [3]; read-out: minimum inhibitory concentration (MIC), strain 163, bacterial count 10^6 CFU/mL (second line of the strain)) | MIC (H. pylori [3]; read-out: minimum inhibitory concentration (MIC), strain 287, bacterial count 10^6 CFU/mL (first line of the strain)) | MIC (H. pylori [3]; read-out: minimum inhibitory concentration (MIC), strain 289, bacterial count 10^6 CFU/mL (second line of the strain))
+: growth of bacterial (H. pylori [2]; strain 159, antibiotic 0.25 μg/mL) | growth of bacterial (H. pylori [2]; strain 159, antibiotic 0.5 μg/mL) | growth of bacterial (H. pylori [2]; strain 161, antibiotic 0.25 μg/mL) | growth of bacterial (H. pylori [2]; strain 161, antibiotic 0.5 μg/mL) | growth of bacterial (H. pylori [2]; strain 162, antibiotic 0.25 μg/mL) | growth of bacterial (H. pylori [2]; strain 162, antibiotic 0.5 μg/mL) | growth of bacterial (H. pylori [2]; strain 163, antibiotic 0.25 μg/mL) | growth of bacterial (H. pylori [2]; strain 163, antibiotic 0.5 μg/mL) | growth of bacterial (H. pylori [2]; strain 286, antibiotic 0.25 μg/mL) | growth of bacterial (H. pylori [2]; strain 286, antibiotic 0.5 μg/mL) | growth of bacterial (H. pylori [2]; strain 287, antibiotic 0.25 μg/mL) | growth of bacterial (H. pylori [2]; strain 287, antibiotic 0.5 μg/mL) | growth of bacterial (H. pylori [2]; strain 289, antibiotic 0.25 μg/mL) | growth of bacterial (H. pylori [2]; strain 289, antibiotic 0.5 μg/mL) | growth of bacterial (H. pylori [2]; strain 289, antibiotic 1 μg/mL) | growth of bacterial (H. pylori [2]; strain 290, antibiotic 0.25 μg/mL) | growth of bacterial (H. pylori [2]; strain 290, antibiotic 0.5 μg/mL) | growth of bacterial (H. pylori [2]; strain 290, antibiotic 1 μg/mL) | growth of bacterial (H. pylori [2]; strain G27, antibiotic 0.25 μg/mL)
0.0625 µg/mL: MIC (H. pylori [3]; strain G27, bacterial count 10^6 CFU/mL (second line of the strain), read-out: minimum inhibitory concentration (MIC))
0.125 µg/mL: MIC (H. pylori [3]; strain G27, bacterial count 10^6 CFU/mL (first line of the strain), read-out: minimum inhibitory concentration (MIC))
−: growth of bacterial (H. pylori [2]; strain 159, antibiotic 1 μg/mL) | growth of bacterial (H. pylori [2]; strain 161, antibiotic 1 μg/mL) | growth of bacterial (H. pylori [2]; strain 162, antibiotic 1 μg/mL) | growth of bacterial (H. pylori [2]; strain 163, antibiotic 1 μg/mL) | growth of bacterial (H. pylori [2]; strain 286, antibiotic 1 μg/mL) | growth of bacterial (H. pylori [2]; strain 287, antibiotic 1 μg/mL) | growth of bacterial (H. pylori [2]; strain 26695, antibiotic 0.25 μg/mL) | growth of bacterial (H. pylori [2]; strain 26695, antibiotic 0.5 μg/mL) | growth of bacterial (H. pylori [2]; strain 26695, antibiotic 1 μg/mL) | growth of bacterial (H. pylori [2]; strain G27, antibiotic 0.5 μg/mL) | growth of bacterial (H. pylori [2]; strain G27, antibiotic 1 μg/mL)
1 µg/mL: MIC ([1]; clinical strain FY-43) | MIC (H. pylori [3]; read-out: minimum inhibitory concentration (MIC), strain 159, bacterial count 10^6 CFU/mL (second line of the strain)) | MIC (H. pylori [3]; read-out: minimum inhibitory concentration (MIC), strain 161, bacterial count 10^4 CFU/mL) | MIC (H. pylori [3]; read-out: minimum inhibitory concentration (MIC), strain 286, bacterial count 10^6 CFU/mL (first line of the strain)) | MIC (H. pylori [3]; read-out: minimum inhibitory concentration (MIC), strain 287, bacterial count 10^4 CFU/mL)
0.0312 µg/mL: MIC (H. pylori [3]; strain G27, bacterial count 10^4 CFU/mL, read-out: minimum inhibitory concentration (MIC))
0.25 µg/mL: MIC ([1]; clinical strain FY-52)
0.5 µg/mL: MIC ([1]; clinical strain FY-47) | optimal concentration for adding antibiotics (H. pylori [2]; conclusion of breakpoint verification) | MIC (H. pylori [3]; read-out: minimum inhibitory concentration (MIC), strain 159, bacterial count 10^4 CFU/mL) | MIC (H. pylori [3]; read-out: minimum inhibitory concentration (MIC), strain 286, bacterial count 10^4 CFU/mL) | MIC (H. pylori [3]; read-out: minimum inhibitory concentration (MIC), strain 286, bacterial count 10^6 CFU/mL (second line of the strain))
0.5 to 32 µg/mL: MIC (H. pylori [3]; resistant strains 159, 161, 162, 163, 286, 287, 289, and 290, bacterial count 1×10^6 CFU/mL, read-out: MICs)
